What all share (type): cell-based
Common to all, as to settings: Homo sapiens, THP-1, Table 7, PMA 50 ng/mL, LPS 100 ng/mL

One experiment relates to TNF-α. The experiment in a line: Inhibition of TNF-α in PMA-differentiated, LPS-stimulated THP-1 cells (ELISA of cell supernatant). Here is the method:
(§1) (1) Cell culture and inoculation: A stock solution of PMA at 1 mg/mL was diluted with serum-free RP1640 medium to prepare a 100 ng/mL PMA solution. Normal cultured THP-1 cells were centrifuged, resuspended in a complete medium (RP1640 medium containing 10% FBS), and counted. The cell density was adjusted to 2×10^6 cells/mL. An equal volume of 100 ng/mL PMA solution was then added, resulting in a cell density of 1×10^6 cells/mL and a final PMA concentration of 50 ng/mL. 100 μL of the cell suspension was seeded into each well of a 96-well cell culture plate with 1×10^5 cells per well. The 96-well cell culture plate was then incubated at 37° C. in a 5% CO2 atmosphere for 24 hours.
(§2) (2) Drug treatment of cells: On the second day, LPS was added to the complete medium to adjust the final concentration to 100 ng/mL, and the compound was prepared using this LPS-containing medium. The compound was added to the appropriate cell wells according to the prepared concentration gradient. The positive control group (LPS+) was a culture medium solution containing a final concentration of 100 ng/mL LPS and 0.1% DMSO without drugs, while the negative control group (LPS-) was a culture medium solution containing 0.1% DMSO without LPS. The volume in each well was 100 μL.
(§3) (3) Test sample collection: The mixture was centrifuged at 1000 rpm for 5 minutes and the cell supernatant and cell precipitate were collected separately. The cell supernatant was used to detect TNF-α and IL-6, and the cell precipitate was collected for IL-1β detection. After collecting the cell supernatant, the remaining liquid in the wells was discarded and 100 μL of cell lysis solution (20 mM Tris 8.0; 2 mM EDTA; 0.5% Triton X-100) was added to each well for complete lysis.
(§4) (4) Sample detection: The enzyme-linked immunosorbent assay (ELISA) was used to detect the content of each cytokine. The specific steps were performed according to the instructions provided in the corresponding kit manuals. The catalog numbers of kits are as follows: • Human TNF-alpha Quantikine ELISA Kit, Catalog # STA00D • Human IL-1 beta/IL-1F2 Quantikine ELISA Kit, Catalog # SLB50 • Human IL-6 Quantikine ELISA Kit, Catalog # S6050.
(§5) (5) Data analysis: The in vitro inhibitory activity of the compounds was calculated using the following formula: […]
On the technique in general: In an ELISA, binding on a coated surface is turned into a signal by an enzyme label.

Another experiment has as its system IL-6. In words: Inhibition of IL-6 in PMA-differentiated, LPS-stimulated THP-1 cells (ELISA of cell supernatant). Here is the method:
as §1, §2, §3, §4, §5

The subject of a further experiment is IL-1β. The experiment in a line: Inhibition of IL-1β in PMA-differentiated, LPS-stimulated THP-1 cells (ELISA of cell lysate). On the procedure: as §1, §2, §3, §4, §5

A word on the IC50: it is the concentration needed to halve the response being measured. High values mean a need for much substance, low ones inhibition by little substance.

As to `CC(CCCN(CCO)Cc1ccccn1)Nc1ccnc2cc(Cl)ccc12` (stereo not drawn) [Example 19, 2-((4-((7-Chloroquinolin-4-yl)amino)pentyl)(pyridin-2-ylmethyl)amino)ethan-1-ol], the IC50 was determined as 14300 nM in the experiment with TNF-α, 810 nM in the experiment with IL-6 and 2200 nM in the experiment with IL-1β.
For the compound `CC(CCCN(CCO)Cc1cccc(F)c1)Nc1ncnc2cc(Cl)ccc12` (stereo not drawn) [Example 20, 2-((4-((7-Chloroquinazolin-4-yl)amino)pentyl)(3-fluorobenzyl)amino)ethan-1-ol], the figures for the IC50 in the experiment with TNF-α, in the experiment with IL-6 and in the experiment with IL-1β were 6400 nM, 470 nM and 5900 nM, respectively.
For `CC(CCCN(CCO)Cc1ccc(F)cc1F)Nc1ncnc2cc(Cl)ccc12` (stereo not drawn) [Example 21, 2-((4-((7-Chloroquinazolin-4-yl)amino)pentyl)(2,4-difluorobenzyl)amino)ethan-1-ol], in that order: 1410 nM, 190 nM and 650 nM.
In the case of `COC(=O)c1ccc(CN(CCO)CCCC(C)Nc2ccnc3cc(Cl)ccc23)c(OC)c1` (stereo not drawn) [Example 22, Methyl 4-(((4-((7-chloroquinolin-4-yl)amino)pentyl)(2-hydroxyethyl)amino)methyl)-3-methoxybenzoate], the IC50 in the experiment with TNF-α worked out at 6910 nM; with IL-6, 2060 nM; in the experiment on IL-1β, 9790 nM.
Regarding `CC(CCCN(CCO)Cc1ccc(C#N)cc1)Nc1ccnc2cc(Cl)ccc12` (stereo not drawn) [Example 23, 4-(((4-((7-Chloroquinolin-4-yl)amino)pentyl)(2-hydroxyethyl)amino)methyl)benzonitrile], the IC50 with TNF-α amounted to 2790 nM; in the experiment with IL-6, 380 nM; with IL-1β, 1360 nM.
For `CC(CCCN(CCO)Cc1cccc(C(F)(F)F)c1)Nc1ccnc2cc(Cl)ccc12` (stereo not drawn) [Example 24, 2-((4-((7-Chloroquinolin-4-yl)amino)pentyl)(3-(trifluoromethyl)benzyl)amino)ethan-1-ol], in that order: 4770 nM, 1200 nM and 4460 nM.
The like results for `CC(CCCN(CCO)Cc1ccc2ccccc2c1)Nc1ccnc2cc(Cl)ccc12` (stereo not drawn) [Example 25, 2-((4-((7-Chloroquinolin-4-yl)amino)pentyl)(naphthalen-2-ylmethyl)amino)ethan-1-ol] were, in that order, 5070 nM, 1320 nM and 4360 nM.
For `CC(CCCN(CCO)Cc1ccc(S(C)(=O)=O)cc1)Nc1ccnc2cc(Cl)ccc12` (stereo not drawn) [Example 26, 2-((4-((7-Chloroquinolin-4-yl)amino)pentyl)(4-(methylsulfonyl)benzyl)amino)ethan-1-ol], the IC50 in the experiment with TNF-α worked out at 3820 nM; with IL-6, 330 nM; with IL-1β, 14000 nM.
In the case of `COC(=O)c1ccc(CN(CCO)CCCC(C)Nc2ccnc3cc(Cl)ccc23)cc1` (stereo not drawn) [Example 27, Methyl 4-(((4-((7-chloroquinolin-4-yl)amino)pentyl)(2-hydroxyethyl)amino)methyl)benzoate], the IC50 in the experiment on TNF-α stood at 2170 nM; with IL-6, 530 nM; in the experiment with IL-1β it was 5780 nM.
For the compound `CC(CCCN(CCO)Cc1ccc(-n2cccn2)cc1)Nc1ccnc2cc(Cl)ccc12` (stereo not drawn) [Example 28, 2-((4-(1H-Pyrazol-1-yl)benzyl)(4-((7-chloroquinolin-4-yl)amino)pentyl)amino)ethan-1-ol], the results for the concentration for half-maximal inhibition (IC50) with TNF-α, in the experiment on IL-6 and in the experiment on IL-1β were 11200 nM, 680 nM and 10900 nM, respectively.
Turning to `CC(CCCN(CCO)Cc1c(F)cccc1Cl)Nc1ccnc2cc(Cl)ccc12` (stereo not drawn) [Example 29, 2-((2-Fluoro-6-chlorobenzyl)(4-((7-chloroquinolin-4-yl)amino)pentyl)amino)ethan-1-ol], the figures for the IC50 in the experiment on TNF-α, in the experiment with IL-6 and with IL-1β were 2630 nM, 360 nM and 4110 nM, respectively.
The like results for `CC(CCCN(CCO)Cc1ccc(C#N)cc1F)Nc1ccnc2cc(Cl)ccc12` (stereo not drawn) [Example 30, 4-(((4-((7-Chloroquinolin-4-yl)amino)pentyl)(2-hydroxyethyl)amino)methyl)-3-fluorobenzonitrile] were, in that order, 970 nM, 120 nM and 1340 nM.
For `COc1ccc(CN(CCO)CCCC(C)Nc2ccnc3cc(Cl)ccc23)cc1F` (stereo not drawn) [Example 31, 2-((4-((7-Chloroquinolin-4-yl)amino)pentyl)(3-fluoro-4-methoxybenzyl)amino)ethan-1-ol], in that order: 7130 nM, 1310 nM and 8640 nM.

The values are drawn from patent publication US20240262793A1, “QUINAZOLINE COMPOUND, AND PREPARATION METHOD THEREFOR AND APPLICATION THEREOF” (SHANGHAI PHARMACEUTICALS HOLDING CO., LTD., priority 2021, published 2024).
